# Source: US12357630B2, “Ceritinib formulation” (Novartis AG, priority 2014, dated 2025)
# Key:
# [1] = Permeability / Biopharmaceutics Classification System; assay type: in vitro ADME
# Method: (§1) Ceritinib is a difficult compound to formulate. […] In addition, physical characteristics of Ceritinib cause sticking and picking during tableting or encapsulation of the drug and make it poorly compressible. Furthermore, the drug is administered at a high dose of 750 mg, which would require a patient to take daily up to 5 units of 150 mg. If the dose is to be increased in a respective dosage form, the increase in drug load generally negatively affects the compressibility of a tablet. Ceritinib's sticky nature causes a high drug load to further negatively influence the manufacturing of tablets due to enhanced sticking/picking.
# Solubility in water = assay type: physicochemical; details: 25° C.
# Method: as §1
smiles,measurement,setting,value
"Cc1cc(Nc2ncc(Cl)c(Nc3ccccc3S(=O)(=O)C(C)C)n2)c(OC(C)C)cc1C1CCNCC1 [Ceritinib, 5-chloro-N^2-(2-isopropoxy-5-methyl-4-(piperidin-4-yl)phenyl)-N^4-[2-(propane-2-sulfonyl)-phenyl]-pyrimidine-2,4-diamine]",permeability,[1],low permeability
same,solubility,Solubility in water,20 µg/mL
